In ChEMBL document CHEMBL1201862, “PubChem BioAssay data set” (2004):
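Briefly, cells in 96-well plates were exposed to five compound concentrations for 48 h, and endpoints were estimated by linear interpolation. Here, GI50 denotes the concentration required for 50% inhibition of growth.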 Calls of active or inactive are those of the source. Cut-off read from the data, not from the text of the source: active = GI50 up to about 1.1 µM and inactive = higher. Where a SMILES comes first, the peptide text is derived from it. [ ]: non-standard residue; d: D form. pGlu = O=C1CC[CH](C(=O)O)N1

Tests used:
Assay in all cases: NCI tumour cell line growth inhibition, 48 h
[1] = system: BT-549
[2] = system: CAKI-1
[3] = system: COLO 205
[4] = system: DU-145
[5] = system: HCT-116
[6] = system: HOP-92
[7] = system: HT-29
[8] = system: K562
[9] = system: KM12
[10] = system: M14
[11] = system: NCI-H460
[12] = system: OVCAR-3
[13] = system: PC-3
[14] = system: RPMI-8226
[15] = system: RXF 393
[16] = system: SF-295
[17] = system: SK-MEL-5
[18] = system: SK-OV-3
[19] = system: T47D
[20] = system: TK-10

Row | Compound | GI50 [1] | GI50 [2] | GI50 [3] | GI50 [4] | GI50 [5] | GI50 [6] | GI50 [7] | GI50 [8] | GI50 [9] | GI50 [10] | GI50 [11] | GI50 [12] | GI50 [13] | GI50 [14] | GI50 [15] | GI50 [16] | GI50 [17] | GI50 [18] | GI50 [19] | GI50 [20]
1 | NCCc1c[nH]c2ccc(OC(=O)C(=O)O)cc12 | > 100 µM (inactive) | > 100 µM (inactive) | > 100 µM (inactive) | > 100 µM (inactive) | > 100 µM (inactive) | > 100 µM (inactive) | > 100 µM (inactive) | > 100 µM (inactive) | > 100 µM (inactive) | > 100 µM (inactive) | > 100 µM (inactive) | > 100 µM (inactive) | > 100 µM (inactive) | > 100 µM (inactive) | > 100 µM (inactive) | > 100 µM (inactive) | > 100 µM (inactive) | > 100 µM (inactive) | > 100 µM (inactive) | > 100 µM (inactive)
2 | O=C(/C=C/C(Cl)(Cl)Cl)Nc1ccc(Cl)cc1 | 17.2 µM (inactive) | 0.8 µM (active) | 2.19 µM (inactive) | 16.9 µM (inactive) | 4.73 µM (inactive) | 2.12 µM (inactive) | 1.94 µM (inactive) | 1.62 µM (inactive) | 2.05 µM (inactive) | 4.62 µM (inactive) | 14.2 µM (inactive) | 6.89 µM (inactive) | 12.5 µM (inactive) | 2.09 µM (inactive) | 3.01 µM (inactive) | 12.4 µM (inactive) | 11.1 µM (inactive) | 18.9 µM (inactive) | 2.15 µM (inactive) | 2.35 µM (inactive)
3 | COc1cc(C2c3cc4c(cc3OC(N3CCCC3)C2C)OCO4)cc(OC)c1OC (stereo not given) | 0.515 µM (active) | 0.664 µM (active) | 0.433 µM (active) | 0.571 µM (active) | 0.481 µM (active) | 0.973 µM (active) | 0.395 µM (active) | 0.361 µM (active) | 0.322 µM (active) | 0.34 µM (active) | 0.767 µM (active) | 0.221 µM (active) | 0.524 µM (active) | 1.08 µM (active) | 0.286 µM (active) | 0.303 µM (active) | 0.344 µM (active) | 0.628 µM (active) | 63.1 µM (inactive) | 0.938 µM (active)
4 | c1ccc(N/N=N/c2ccc(-c3nc4ccccc4[nH]3)cc2)nc1 | 37.5 µM (inactive) | 27.9 µM (inactive) | 27 µM (inactive) | 13.2 µM (inactive) | 7.11 µM (inactive) | 17.3 µM (inactive) | 21 µM (inactive) | 7.31 µM (inactive) | 13.6 µM (inactive) | 37.4 µM (inactive) | 15.2 µM (inactive) | 15 µM (inactive) | 18.1 µM (inactive) | 2.05 µM (inactive) | 16.4 µM (inactive) | 19.2 µM (inactive) | 27.6 µM (inactive) | 14.7 µM (inactive) | 12.7 µM (inactive) | 19.6 µM (inactive)
5 | Cc1cc(N2CCOCC2)nc2ccc(Cc3ccc4nc(N5CCOCC5)cc(C)c4c3)cc12 | 60.7 µM (inactive) | > 100 µM (inactive) | 13.3 µM (inactive) | > 100 µM (inactive) | 21.9 µM (inactive) | > 100 µM (inactive) | 18.7 µM (inactive) | 27 µM (inactive) | > 100 µM (inactive) | 41.1 µM (inactive) | 26.7 µM (inactive) | 33.3 µM (inactive) | 56.4 µM (inactive) | 20.2 µM (inactive) | 25.9 µM (inactive) | 78.7 µM (inactive) | 16.2 µM (inactive) | > 100 µM (inactive) | 14.6 µM (inactive) | 29.4 µM (inactive)
6 | CN(C)CCCNc1ccc([N+](=O)[O-])c2nc3ccccc3c(N)c12 | 1.48 µM (inactive) | 2.67 µM (inactive) | 0.243 µM (active) | 0.308 µM (active) | 0.124 µM (active) | 0.516 µM (active) | 0.225 µM (active) | 0.312 µM (active) | 0.436 µM (active) | 0.7 µM (active) | 0.352 µM (active) | 0.63 µM (active) | 0.394 µM (active) | 0.266 µM (active) | 0.736 µM (active) | 0.382 µM (active) | 1.21 µM (inactive) | 0.228 µM (active) | 0.914 µM (active) | 2.27 µM (inactive)
7 | CCC(C)NC(=S)N/N=C(\C)c1ccccn1 (stereo not given) | 0.444 µM (active) | < 0.01 µM (active) | < 0.01 µM (active) | 1.28 µM (inactive) | < 0.01 µM (active) | 0.14 µM (active) | < 0.01 µM (active) | < 0.01 µM (active) | 0.156 µM (active) | 0.0372 µM (active) | 0.15 µM (active) | < 0.01 µM (active) | < 0.01 µM (active) | < 0.01 µM (active) | < 0.01 µM (active) | 0.215 µM (active) | 0.155 µM (active) | 0.188 µM (active) | < 0.01 µM (active) | 2.87 µM (inactive)
8 | COc1cc(/C=C/C(=O)c2c([O-])on[n+]2-c2ccccc2)ccc1O | 2.99 µM (inactive) | 3 µM (inactive) | 12.1 µM (inactive) | 2.34 µM (inactive) | 2.19 µM (inactive) | 2.4 µM (inactive) | 2.37 µM (inactive) | 2.7 µM (inactive) | 2.31 µM (inactive) | 3.43 µM (inactive) | 2.07 µM (inactive) | 2.29 µM (inactive) | 6.58 µM (inactive) | 1.77 µM (inactive) | 2 µM (inactive) | 7.89 µM (inactive) | 3.78 µM (inactive) | 3.73 µM (inactive) | 2.77 µM (inactive) | 3.29 µM (inactive)
9 | O=[N+]([O-])c1ccc(C2Nn3c(nnc3-c3cccc([N+](=O)[O-])c3)S2)cc1 (stereo not given) | > 100 µM (inactive) | > 100 µM (inactive) | > 100 µM (inactive) | > 100 µM (inactive) | 67.6 µM (inactive) | > 100 µM (inactive) | > 100 µM (inactive) | 50 µM (inactive) | > 100 µM (inactive) | > 100 µM (inactive) | > 100 µM (inactive) | > 100 µM (inactive) | > 100 µM (inactive) | 42.7 µM (inactive) | > 100 µM (inactive) | > 100 µM (inactive) | 53.6 µM (inactive) | > 100 µM (inactive) | 49.4 µM (inactive) | > 100 µM (inactive)
10 | C[C@]12CC[C@@H]3c4ccc(O)cc4CC[C@H]3[C@@H]1CC[C@@H]2OP(=O)(O)O | > 100 µM (inactive) | > 100 µM (inactive) | > 100 µM (inactive) | > 100 µM (inactive) | > 100 µM (inactive) | > 100 µM (inactive) | > 100 µM (inactive) | > 100 µM (inactive) | > 100 µM (inactive) | > 100 µM (inactive) | > 100 µM (inactive) | > 100 µM (inactive) | > 100 µM (inactive) | > 100 µM (inactive) | > 100 µM (inactive) | > 100 µM (inactive) | > 100 µM (inactive) | > 100 µM (inactive) | > 100 µM (inactive) | > 100 µM (inactive)
11 | CC(NNC(=O)c1cc[n+]([BH2-]C#N)cc1)c1cccc(C(F)(F)F)c1 (stereo not given) | > 100 µM (inactive) | > 100 µM (inactive) | > 100 µM (inactive) | > 100 µM (inactive) | 82 µM (inactive) | > 100 µM (inactive) | 82.2 µM (inactive) | 47.8 µM (inactive) | > 100 µM (inactive) | 37.9 µM (inactive) | 77.8 µM (inactive) | 89.3 µM (inactive) | 44 µM (inactive) | 65.2 µM (inactive) | 60.1 µM (inactive) | 50.2 µM (inactive) | 72.1 µM (inactive) | 26.7 µM (inactive) | 40.2 µM (inactive) | > 100 µM (inactive)
12 | CC(NC(=O)C1CCC(=O)N1)C(=O)N1CCCC1C(N)=O (stereo not drawn) ([pGlu]-Ala-Pro-NH2; configuration not given here) | > 100 µM (inactive) | > 100 µM (inactive) | > 100 µM (inactive) | > 100 µM (inactive) | > 100 µM (inactive) | > 100 µM (inactive) | > 100 µM (inactive) | > 100 µM (inactive) | > 100 µM (inactive) | > 100 µM (inactive) | > 100 µM (inactive) | > 100 µM (inactive) | > 100 µM (inactive) | > 100 µM (inactive) | > 100 µM (inactive) | > 100 µM (inactive) | > 100 µM (inactive) | > 100 µM (inactive) | > 100 µM (inactive) | > 100 µM (inactive)
